In patent US10449186B2, “Phenylethynyl-substituted benzenes and heterocycles for the treatment of cancer” (UNIVERSITY OF KENTUCKY RESEARCH FOUNDATION, priority 2017, dated 2019):
Where two headings read alike, the source gives them in different places.

What was measured:
[1] = test system: LS174T colon cancer cells; assay: LS174T cell proliferation assay; type: cell-based; settings: Homo sapiens, LS174T; for IC50: read-out: IC50, LS174T cell proliferation assay
Description: Cell proliferation assay. LS174T cells were grown in RPMI medium (Mediatech) supplemented with 5% fetal bovine serum and 1% penicillin/streptomycin. For cell proliferation assays, 3×10^4 cells/well growing in 12-well plates were treated with DMSO or inhibitors. The cell numbers and viability were analyzed by Vi-Cell Cell Viability Analyzer after 4 days. The IC50 values were calculated with GraphPad Prim 5.

[2] = test system: LS174T colon cancer cells; settings: data from Sviripa et al. 2014, cited from earlier work; for inhibition of proliferation (%) of colon cancer LS174T cells: Table 1; for inhibition of cell proliferation (%) of colon cancer LS174T cells: Table 2
p21^Wif1/Cip1 = assay: Western blot, p21^Wif1/Cip1 expression in LS174T cells; type: cell-based; settings: 300 nM
Description: (§1) FIG. 2A is a western blot showing the effects of 4-((2,6-difluorophenyl)ethynyl)-N,N-dimethylaniline (2), 4-((2,6-difluorophenyl)ethynyl)-N,N-dimethylisoquinolin-1-amine (5nn), and 4-((2,6-difluorophenyl)ethynyl)-N-methylisoquinolin-1-amine (5oo) on the expression of […] and p21^Wif1/Cip1 in LS174T cells at 300 nM concentrations.
(§2) Western blotting. Western blotting was performed as described previously. The following antibodies were used: anti-c-myc (Epitomics, 1472-1), anti-p21^Wif1/Cip1 (Cell Signaling, 2947), anti-β-tubulin (DSHB, E7).

cyclin D1 = assay: Western blot, cyclin D1 expression in LS174T cells; type: cell-based; settings: 300 nM
Description: as §1, §2

[3] = read-out: inhibition of cell proliferation (%) of colon cancer LS174T cells
[4] = Table 2, 100 nM, read-out: inhibition of cell proliferation (%) of colon cancer LS174T cells
[5] = Table 2, 1 μM, read-out: inhibition of cell proliferation (%) of colon cancer LS174T cells
[6] = Table 2, 10 μM, read-out: inhibition of cell proliferation (%) of colon cancer LS174T cells
[7] = Table 1, 1 μM, read-out: inhibition of proliferation (%) of colon cancer LS174T cells
[8] = Table 1, 10 μM, read-out: inhibition of proliferation (%) of colon cancer LS174T cells

SMILES	inhibition at 1 µM [1, 3]	inhibition at 10 µM [1, 3]	inhibition at 0.1 µM [1, 3]	melting point	further results
CN1CCN(c2ncc(C#Cc3c(F)cccc3F)c3ccccc23)CC1 [Compound 5pp, 4-((2,6-Difluorophenyl)ethynyl)-1-(4-methylpiperazin-1-yl)isoquinoline]	23.2 ± 9.4%	100%			water solubility (Water solubility; hydrochloride salts): completely water-soluble
CN(C)c1ncc(C#Cc2c(F)cccc2F)c2ncccc12 [Compound 5qq, 8-((2,6-Difluorophenyl)ethynyl)-N,N-dimethyl-1,6-naphthyridin-5-amine]	87.9 ± 0.8%	85.2 ± 1%	59.5 ± 3.5%	149 to 150 °C	inhibition at 1 µM ([1]; read-out: inhibition of LS174T colon cancer cell proliferation): > 75%; water solubility (Water solubility; hydrochloride salts): completely water-soluble
CN(C)c1ccc(C#Cc2c(F)cccc2F)cc1 [Compound 2, 4-((2,6-difluorophenyl)ethynyl)-N,N-dimethylaniline]					inhibition of proliferation (%) of colon cancer LS174T cells ([2]; 100 nM): 85.2%; inhibition of proliferation (%) of colon cancer LS174T cells ([2]; 1 μM): 99.5%; inhibition of cell proliferation (%) of colon cancer LS174T cells ([2]; 30 nM): 57 ± 1.2%; inhibition of cell proliferation (%) of colon cancer LS174T cells ([2]; 100 nM): 85.2 ± 0.5%; inhibition of cell proliferation (%) of colon cancer LS174T cells ([2]; 1 μM): 99.5 ± 0.1%; IC50 [1]: 25.1 ± 1.3 nM; water solubility (Water solubility; parent compound): sparingly water-soluble; p21^Wif1/Cip1 expression (western blot) (p21^Wif1/Cip1): induced p21^Wif1/Cip1; cyclin D1 expression (western blot) (cyclin D1): inhibited cyclin D1 expression
CNc1ncc(C#Cc2c(F)cccc2F)c2ccccc12 [Compound 5oo, 4-((2,6-Difluorophenyl)ethynyl)-N-methylisoquinolin-1-amine]	99.8 ± 0.2%	98.9 ± 1%	99.5 ± 0.5%	118 to 120 °C	IC50 [1]: 4.2 ± 0.2 nM; inhibition at 0.03 µM [1, 3]: 94.5 ± 1.5%; p21^Wif1/Cip1 expression (western blot) (p21^Wif1/Cip1): induced p21^Wif1/Cip1; cyclin D1 expression (western blot) (cyclin D1): inhibited cyclin D1 expression
Fc1cccc(F)c1C#Cc1ccc2ncccc2c1 [Compound 5w, 6-((2,6-Difluorophenyl)ethynyl)quinoline]	11 ± 30.4%	80.1 ± 1%		91 to 93 °C	
CN(C)c1ccc(C#Cc2c(F)cccc2F)nc1 [Compound 5a, 6-((2,6-Difluorophenyl)ethynyl)-N,N-dimethylpyridin-3-amine]				120 to 122 °C	inhibition at 0.1 µM [1, 4]: 15.1 ± 7.4%; inhibition at 1 µM [1, 5]: 68.9 ± 1.3%; inhibition at 10 µM [1, 6]: 85.2 ± 3.8%
CN1CCN(c2ccc(C#Cc3c(F)cccc3F)cc2)CC1 [Compound 4c, 1-(4-((2,6-Difluorophenyl)ethynyl)phenyl)-4-methylpiperazine]				126 to 128 °C	inhibition at 1 µM [1, 7]: 19.9%; inhibition at 10 µM [1, 8]: 99.6%
Fc1cccc(F)c1C#Cc1nccc2ccccc12 [Compound 5gg, 1-((2,6-Difluorophenyl)ethynyl)isoquinoline]				120 to 122 °C	inhibition at 1 µM [1, 5]: 35.4 ± 15%; inhibition at 10 µM [1, 6]: 96.7 ± 0.2%
Fc1ccc2ccnc(C#Cc3c(F)cccc3F)c2c1 [Compound 5ll, 1-((2,6-Difluorophenyl)ethynyl)-7-fluoroisoquinoline]	71.1 ± 3.5%	96.2 ± 0.1%	0%	177 to 178 °C	
Fc1ccc2cc(C#Cc3c(F)cccc3F)cnc2c1 [Compound 5s, 3-((2,6-Difluorophenyl)ethynyl)-7-fluoroquinoline]	69.4 ± 4.5%	95.1 ± 1.6%	14.8 ± 5.5%	142 to 143 °C	
Fc1cccc(F)c1C#Cc1cccc2ncccc12 [Compound 5v, 5-((2,6-Difluorophenyl)ethynyl)quinoline]	43.1 ± 11.2%	94.7 ± 2.9%		98 to 100 °C	
Fc1cccc(F)c1C#Cc1cnc2ccccc2c1 [Compound 5n, 3-((2,6-Difluorophenyl)ethynyl)quinoline]	41.7 ± 6.5%	90.4 ± 1%	0%	115 to 117 °C	
Cc1ccc(C)n1-c1ccc(C#Cc2c(F)cccc2F)cc1 [Compound 4e, 1-(4-((2,6-Difluorophenyl)ethynyl)phenyl)-2,5-dimethyl-1H-pyrrole]				124 to 126 °C	inhibition at 1 µM [1, 7]: 20.9%; inhibition at 10 µM [1, 8]: 78.8%
Fc1cccc(F)c1C#Cc1ccc2nc(Cl)ccc2c1 [Compound 5z, 2-Chloro-6-((2,6-difluorophenyl)ethynyl)quinoline]	21.2 ± 11.4%	63.3 ± 2.3%		137 to 138 °C	
Fc1cccc(F)c1C#Cc1cnc2c(F)cccc2c1 [Compound 5t, 3-((2,6-Difluorophenyl)ethynyl)-8-fluoroquinoline]	63.6 ± 8.4%	89.1 ± 8.2%	8.8 ± 5.1%	136 to 137 °C	
Cn1ncc2cc(C#Cc3c(F)cccc3F)ccc21 [Compound 5j, 5-((2,6-difluorophenyl)ethynyl)-1-methyl-1H-indazole]				107 to 109 °C	inhibition at 0.1 µM [1, 4]: 0%; inhibition at 1 µM [1, 5]: 58.4 ± 9.6%; inhibition at 10 µM [1, 6]: 94.6 ± 3.5%
Nc1ccnc2cc(C#Cc3c(F)cccc3F)ccc12 [Compound 5dd, 7-((2,6-Difluorophenyl)ethynyl)quinolin-4-amine]				219 to 221 °C	inhibition at 1 µM [1, 5]: 23.6 ± 2.5%; inhibition at 10 µM [1, 6]: 97.7 ± 2.2%
Fc1cccc(F)c1C#Cc1ccnc2cc(Cl)ccc12 [Compound 5u, 7-Chloro-4-((2,6-difluorophenyl)ethynyl)quinoline]	36 ± 0.4%	74.3 ± 0.2%		130 to 132 °C	
CN(C)c1ncc(C#Cc2c(F)cccc2F)c2ccccc12 [Compound 5nn, 4-((2,6-difluorophenyl)ethynyl)-N,N-dimethylisoquinolin-1-amine]	99.5 ± 0.1%	97.6 ± 1.5%	81.7 ± 2.1%	122 to 124 °C	IC50 [1]: 11.8 ± 1.5 nM; inhibition at 0.03 µM [1, 3]: 86 ± 2%; p21^Wif1/Cip1 expression (western blot) (p21^Wif1/Cip1): induced p21^Wif1/Cip1; cyclin D1 expression (western blot) (cyclin D1): inhibited cyclin D1 expression
Fc1cccc(F)c1C#Cc1ccc2cnccc2c1 [Compound 5jj, 6-((2,6-difluorophenyl)ethynyl)isoquinoline]				97 to 99 °C	inhibition at 1 µM [1, 5]: 11.6 ± 21.3%; inhibition at 10 µM [1, 6]: 82.4 ± 10.2%
Fc1cccc(F)c1C#Cc1cccc2[nH]ncc12 [Compound 5g, 4-((2,6-Difluorophenyl)ethynyl)-1H-indazole]	19.8 ± 13.6%	96.2 ± 2%		178 to 179 °C	
CN(C)c1ccc(C#Cc2c(F)cccc2F)cn1 [Compound 5b, 5-((2,6-Difluorophenyl)ethynyl)-N,N-dimethylpyridin-2-amine]				110 to 112 °C	inhibition at 1 µM ([1]; 1 μM, read-out: inhibition of LS174T colon cancer cell proliferation): > 75%; inhibition at 0.1 µM [1, 4]: 0%; inhibition at 1 µM [1, 5]: 77.9 ± 7%; inhibition at 10 µM [1, 6]: 83.6 ± 7.8%
